According to patent publication US20250179047A1, “5-[7-(3,4-DIHYDRO-1H-ISOQUINOLINE-2-CARBONYL)-1,2,3,4 TETRAHYDROISOQUINOLIN-6-YL]-1H-PYRROLE-3-CARBOXAMIDE DERIVATIVES, PHARMACEUTICAL COMPOSITIONS CONTAINING THEM AND THEIR USES AS PRO-APOPTOTIC AGENTS” (LES LABORATOIRES SERVIER, priority 2022, published 2025):

Key:
[1] = target: BCL2 D111A (Homo sapiens, UniProt P10415, D111A); test: TR-FRET competitive binding assay, BCL2 D111A; settings: Ki determined from IC50, read-out: TR_FRET EKI_Bcl2 D111A
Procedure, shortened: (§1)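 Terbium-labelled N-terminal Halo-fusion BCL2 or BCLXL (E. coli), 0.5 nM, competed against fluorescein-labelled PUMA peptide (2 or 20 nM) for 2 h at 23° C in 50 mM Hepes pH 7.5, 150 mM NaCl, 5% DMSO. TR-FRET 520/495 nm ratio gave IC50 by four-parameter fit; Ki derived from IC50.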

[2] = target: BCL2 D103Y (Homo sapiens, UniProt P10415, D103Y); test: TR-FRET competitive binding assay, BCL2 D103Y; settings: Ki determined from IC50, read-out: TR_FRET EKI_Bcl2 D103Y
Procedure, shortened: as §1

[3] = target: BCL2 WT (Homo sapiens (Human), UniProt P10415); test: TR-FRET competitive binding assay, BCL2 WT; settings: Ki determined from IC50, read-out: TR_FRET EKI_Bcl2 WT
Procedure, shortened: as §1

[4] = test system: KMS12PE Bcl2 A113G; test: In vitro cytotoxicity CellTiterGlo 72 h, KMS12PE Bcl2 A113G; assay type: cell-based; settings: Homo sapiens, KMS-12-PE, read-out: C50 nM, KMS12PE Bcl2 A113G
Experimental: (§2) KMS-12-PE (ACC 606) were purchased from the Leibniz-Institute DSMZ (Braunschweig, Germany) and were grown at 37° C. in a humidified atmosphere with 5% CO2 in media recommended by the suppliers. Lentiviral particles containing Bcl-2 wild type (also named “Bcl2 WT”), Bcl-2 mutated on G101V (also named “Bcl2 G101V”), Bcl-2 mutated on D103Y (also named “Bcl2 D103Y”), Bcl-2 mutated on D103V (also named “Bcl2 D103V”), Bcl-2 mutated on D103E (also named “Bcl2 D103E”), Bcl-2 mutated on F104I (also named “Bcl2 F104I”), Bcl-2 mutated on F104L (also named “Bcl2 F104L”), Bcl-2 mutated on D111A (also named “Bcl2 D111A”), Bcl-2 mutated on A113G (also named “Bcl2 A113G”), Bcl-2 mutated on R129L (also named “Bcl2 R129L”), Bcl-2 mutated on V156D (also named “Bcl2 V156D”) were cloned into pcLV-CMV-DEST-IRES-TagRFP. Lentiviral particles (1×10^6) were mixed with Polybrene at 8 μg/ml and transduced by spinoculation for 1 h at 32° C. and incubated overnight. After 8 days, TagRFP positive-cells were sorted by FACS. BCL2 expression was monitored by immunoblotting using anti-Flag and anti-BCL2 antibodies. Cells were seeded into 96-wells plates and treated with 1:3.16 serial dilution of compounds (9 different concentrations). Cell viability was assessed using CellTiterGlo reagent following treatment for 72 h. Results were normalized to the viability of cells without compounds (control wells). The C50 values were calculated using nonlinear regression algorithms in XCell software.

[5] = test system: KMS12PE Bcl2 V156D; test: In vitro cytotoxicity CellTiterGlo 72 h, KMS12PE Bcl2 V156D; assay type: cell-based; settings: Homo sapiens, KMS-12-PE, read-out: C50 nM, KMS12PE Bcl2 V156D
Experimental: as §2

[6] = test system: KMS12PE Bcl2 D103E; test: In vitro cytotoxicity CellTiterGlo 72 h, KMS12PE Bcl2 D103E; assay type: cell-based; settings: Homo sapiens, KMS-12-PE, read-out: C50 nM, KMS12PE Bcl2 D103E
Experimental: as §2

[7] = test system: KMS12PE Bcl2 D103Y; test: In vitro cytotoxicity CellTiterGlo 72 h, KMS12PE Bcl2 D103Y; assay type: cell-based; settings: Homo sapiens, KMS-12-PE, read-out: C50 nM, KMS12PE Bcl2 D103Y
Experimental: as §2

[8] = test system: BCL2 G101V; test: TR-FRET competitive binding assay, BCL2 G101V; parameters: species or system human; settings: ratio Ki BCL2 G101V / Ki BCL2 WT
Procedure, shortened: as §1

[9] = target: BCL2 G101V (Homo sapiens, UniProt P10415, G101V); test: TR-FRET competitive binding assay, BCL2 G101V; settings: BCL2 G101V; Ki determined from IC50; read-out: TR_FRET EKI_Bcl2 G101V
Procedure, shortened: as §1

[10] = test system: KMS12PE Bcl2 WT; test: In vitro cytotoxicity CellTiterGlo 72 h, KMS12PE Bcl2 WT; assay type: cell-based; settings: Homo sapiens, KMS-12-PE, read-out: C50 nM, KMS12PE Bcl2 WT
Experimental: as §2

SMILES | Ki [1] | Ki [2] | Ki [3] | IC50 [4] | IC50 [5] | IC50 [6] | IC50 [7] | TR_FRET EKI G101V/WT selectivty ratio [8] | Ki [9] | IC50 [10]
Cc1c(N(C(=O)c2cc(-c3cc4c(cc3C(=O)N3Cc5ccccc5C[C@H]3CN3CCCCC3)CN(C(=O)Cc3ccc(OCCC5CCOCC5)cc3)CC4)n(C)c2C)c2ccc(O)cc2)cc(C#N)n1C [Example 66, N-(5-cyano-1,2-dimethylpyrrol-3-yl)-N-(4-hydroxyphenyl)-1,2-dimethyl-5-[2-(2-{4-[2-(oxan-4-yl)ethoxy]phenyl}acetyl)-7-{[(3S)-3-(piperidin-1-ylmethyl)-3,4-dihydro-1H-isoquinolin-2-yl]carbonyl}-3,4-dihydro-1H-isoquinolin-6-yl]pyrrole-3-carboxamide] | 0.23 nM | 0.23 nM | 0.08 nM | 2.89 nM | 7.65 nM | 1.89 nM | 1.3 nM | 5.7 | 0.5 nM | 1.74 nM
Cc1c(C(=O)N(c2ccc(O)cc2)c2cc(C#N)n(C(F)F)c2C)cc(-c2cc3c(cc2C(=O)N2Cc4ccccc4C[C@H]2CN2CCCCC2)CN(C(=O)Cc2ccc(OCCN4CCOCC4)cc2)CC3)n1C [Example 77] | 0.2 nM | 0.14 nM | 0.06 nM | 7.86 nM | 19.1 nM | 4.69 nM | 3.31 nM | 5.1 | 0.3 nM | 4.75 nM
Cc1c(C(=O)N(c2ccc(O)cc2)c2cc(C#N)n(C(F)F)c2C)cc(-c2cc3c(cc2C(=O)N2Cc4ccccc4C[C@H]2CN2CCCCC2)CN(C(=O)Cc2ccc(OCCN4CCOCC4)cc2F)CC3)n1C [Example 78, N-[5-cyano-1-(difluoromethyl)-2-methylpyrrol-3-yl]-5-[2-(2-{2-fluoro-4-[2-(morpholin-4-yl)ethoxy]phenyl}acetyl)-7-{[(3S)-3-(piperidin-1-ylmethyl)-3,4-dihydro-1H-isoquinolin-2-yl]carbonyl}-3,4-dihydro-1H-isoquinolin-6-yl]-N-(4-hydroxyphenyl)-1,2-dimethylpyrrole-3-carboxamide] | 0.26 nM | 0.14 nM | 0.05 nM | 2.11 nM | 5.88 nM | 1.18 nM | 1 nM | 6.8 | 0.4 nM | 1.41 nM
Cc1c(N(C(=O)c2cc(-c3cc4c(cc3C(=O)N3Cc5ccccc5C[C@H]3CN3CCC[C@H](C)C3)CN(C(=O)Cc3ccc(OCCN5CCOCC5)cc3F)CC4)n(C)c2C)c2ccc(O)cc2)cc(C#N)n1C [Example 107] | 0.22 nM | 0.32 nM | 0.09 nM | 2.82 nM | 5.93 nM | 1.22 nM | 0.97 nM | 4.3 | 0.4 nM | 1.59 nM
